In patent publication US11261174B2, “Pyrazole O-linked carbamoyl cyclohexyl acids as LPA antagonists” (BRISTOL-MYERS SQUIBB COMPANY, priority 2017, dated 2022):

Tested on: human foetal lung fibroblasts
Assay: not given
Settings: induced by BAL obtained from IPF patients; cited from earlier work

| SMILES | chemotaxis of human foetal lung fibroblasts |
| --- | --- |
| Cc1noc(-c2ccc(CSCCC(=O)O)cc2)c1NC(=O)OC(C)c1ccccc1Cl (stereo not drawn) [Ki16425] | blocked |

Tested on: mouse epithelial renal cell line, MCT
Assay: not given
Settings: LPA treatment of MCT cells, co-treatment; cited from earlier work

| SMILES | induction of CTGF expression |
| --- | --- |
| Cc1noc(-c2ccc(CSCCC(=O)O)cc2)c1NC(=O)OC(C)c1ccccc1Cl (stereo not drawn) [Ki16425] | almost completely suppressed |

Tested on: UUO mice
Assay: not given
Settings: cited from earlier work

| SMILES | development of renal fibrosis |
| --- | --- |
| Cc1noc(-c2ccc(CSCCC(=O)O)cc2)c1NC(=O)OC(C)c1ccccc1Cl (stereo not drawn) [Ki16425] | closely resembled the profile of LPA1 (−/−) mice |

Target: T1, LPA1 (Homo sapiens, UniProt Q92633)
T1 sequence (Q92633 whole entry): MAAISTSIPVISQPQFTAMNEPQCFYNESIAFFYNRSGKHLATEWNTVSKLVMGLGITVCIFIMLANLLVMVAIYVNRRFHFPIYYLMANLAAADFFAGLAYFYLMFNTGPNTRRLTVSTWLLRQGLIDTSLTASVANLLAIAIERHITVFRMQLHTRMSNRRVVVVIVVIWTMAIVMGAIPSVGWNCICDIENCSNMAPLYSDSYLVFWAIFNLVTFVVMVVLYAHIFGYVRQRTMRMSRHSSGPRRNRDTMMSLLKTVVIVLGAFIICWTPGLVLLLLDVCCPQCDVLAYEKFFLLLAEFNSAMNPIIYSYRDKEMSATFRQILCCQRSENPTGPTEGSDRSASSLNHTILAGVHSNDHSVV
Assay: not given
Settings: IPF patients, 26-week clinical trial; cited from earlier work

| SMILES | rate of FVC (forced vital capacity) decline |
| --- | --- |
| Cc1noc(-c2ccc(-c3ccc(C4(C(=O)O)CC4)cc3)cc2)c1NC(=O)O[C@H](C)c1ccccc1 [BMS-986020] | significantly reduce |

Target: T1, LPA1
Assay: LPA1 functional antagonist assay (LPA-induced calcium flux)
Format: cell-based
Parameters: expressed in transfected cells; host or cells: Chinese hamster ovary (CHO) cells
Settings: CHO cells overexpressing human LPA1; calcium flux induced by 10 nM LPA; read-out: hLPA1 IC50
Experimental: The effectiveness of compounds of the present invention as LPA1 inhibitors can be determined in an LPA1 functional antagonist assay as follows:
Chinese hamster ovary cells overexpressing human LPA1 were plated overnight (15,000 cells/well) in poly-D-lysine coated 384-well microplates (Greiner bio-one, Cat #781946) in DMEM/F12 medium (Gibco, Cat #11039). Following overnight culture, cells were loaded with calcium indicator dye (AAT Bioquest Inc, Cat #34601) for 30 minutes at 37° C. The cells were then equilibrated to room temperature for 30 minutes before the assay. Test compounds solubilized in DMSO were transferred to 384 well non-binding surface plates (Corning, Cat #3575) using the Labcyte Echo acoustic dispense and diluted with assay buffer [1×HBSS with calcium/magnesium (Gibco Cat #14025-092), 20 mM HEPES (Gibco Cat #15630-080) and 0.1% fatty acid free BSA (Sigma Cat # A9205)] to a final concentration of 0.5% DMSO. Diluted compounds were added to the cells by FDSS6000 (Hamamatsu) at final concentrations ranging from 0.08 nM to 5 μM. and were then incubated for 20 min at room temperature at which time LPA (Avanti Polar Lipids Cat #857130C) was added at final concentrations of 10 nM to stimulate the cells. […] IC50 values were determined by fitting data to a 4-parameter logistic equation (GraphPad Prism, San Diego Calif.).

| SMILES | IC50 [µM] |
| --- | --- |
| C[C@@H](C1CC1)N(C)C(=O)OCc1c(-c2ccc(O[C@H]3CCC[C@H](C(=O)O)C3)cc2)cnn1C [Example 57] | 0.192 |
| CCC(C)N(C)C(=O)OCc1c(-c2ccc(O[C@H]3CCC[C@H](C(=O)O)C3)cn2)cnn1C (stereo partly drawn) [Example 59] | 0.401 |
| CC(C1CC1)N(C)C(=O)OCc1c(-c2ccc(O[C@H]3CCC[C@H](C(=O)O)C3)cn2)cnn1C (stereo partly drawn) [Example 61] | 0.134 |
| CCCN(C)C(=O)OCc1c(-c2ncc(O[C@H]3CCC[C@H](C(=O)O)C3)c(C)n2)cnn1C [Example 66, (1S,3S)-3-((4-Methyl-2-(1-methyl-5-(((methyl(propyl)carbamoyl)oxy)methyl)-1H-pyrazol-4-yl)pyrimidin-5-yl)oxy)cyclohexane-1-carboxylic Acid] | 0.214 |
| Cc1nc(-c2cnn(C)c2COC(=O)N(C)CC(C)C)ncc1O[C@H]1CCC[C@H](C(=O)O)C1 [Example 68] | 0.214 |
| Cc1nc(-c2cnn(C)c2COC(=O)N(C)CC2CC2)ncc1O[C@H]1CCC[C@H](C(=O)O)C1 [Example 69] | 0.293 |
| Cc1nc(-c2cnn(C)c2COC(=O)N(C)C2CCC2)ncc1O[C@H]1CCC[C@H](C(=O)O)C1 [Example 70] | 0.12 |
| Cc1nc(-c2cnn(C)c2COC(=O)N(C)C2CCCC2)ncc1O[C@H]1CCC[C@H](C(=O)O)C1 [Example 71] | 0.115 |
| Cc1nc(-c2cnn(C)c2COC(=O)N(C)CCCCCF)ncc1O[C@H]1CCC[C@H](C(=O)O)C1 [Example 73] | 0.142 |
| CCCCCN(C)C(=O)OCc1c(-c2ncc(O[C@H]3CCC[C@H](C(=O)O)C3)c(C)n2)cnn1C [Example 75] | 0.082 |
| Cc1nc(-c2cnn(C)c2COC(=O)N(C)CC23CC(F)(C2)C3)ncc1O[C@H]1CCC[C@H](C(=O)O)C1 [Example 76] | 0.346 |
| Cc1nc(-c2cnn(C)c2COC(=O)N(C)CC23CC(C2)C3)ncc1O[C@H]1CCC[C@H](C(=O)O)C1 [Example 77] | 0.125 |
| Cc1nc(-c2cnn(C)c2COC(=O)N(C)CCC2CC2(F)F)ncc1O[C@H]1CCC[C@H](C(=O)O)C1 (stereo partly drawn) [Example 78] | 0.317 |
| Cc1nc(-c2cnn(C)c2COC(=O)N(C)C2CCCCC2)ncc1O[C@H]1CCC[C@H](C(=O)O)C1 [Example 79] | 0.093 |
| Cc1nc(-c2cnn(C)c2COC(=O)NC2CCCCC2)ncc1O[C@H]1CCC[C@H](C(=O)O)C1 [Example 81] | 0.856 |
| CCc1nc(-c2cnn(C)c2COC(=O)N(C)Cc2ccccc2)ncc1O[C@H]1CCC[C@H](C(=O)O)C1 [Example 82] | 0.079 |
| CCc1nc(-c2cnn(C)c2COC(=O)N(C)CC2CC2)ncc1O[C@H]1CCC[C@H](C(=O)O)C1 [Example 85] | 0.162 |
| CCc1nc(-c2cnn(C)c2COC(=O)N(C)C2CCC2)ncc1O[C@H]1CCC[C@H](C(=O)O)C1 [Example 86] | 0.217 |
| CCCN(C)C(=O)OCc1c(-c2ncc(O[C@H]3CCC[C@H](C(=O)O)C3)c(CC)n2)cnn1C [Example 88] | 1.27 |
| Cc1nc(-c2cnn(C)c2COC(=O)N2CC(C)(C)C2)ccc1O[C@H]1CCC[C@H](C(=O)O)C1 [Example 90] | 0.309 |

The next lines start with the values.

| IC50 [µM] | SMILES |
| --- | --- |
| 0.038 | C[C@H](C1CC1)N(C)C(=O)OCc1c(-c2ccc(O[C@H]3CCC[C@H](C(=O)O)C3)cc2)cnn1C [Example 58] |
| 0.011 | CCCCN(C)C(=O)OCc1c(-c2ccc(O[C@H]3CCC[C@H](C(=O)O)C3)c(C)c2)cnn1C [Example 60] |
| 0.031 | CN(C(=O)OCc1c(-c2ccc(O[C@H]3CCC[C@H](C(=O)O)C3)cn2)cnn1C)C1CCCC1 [Example 62] |
| 0.046 | CN(CCC1CC1)C(=O)OCc1c(-c2ccc(O[C@H]3CCC[C@H](C(=O)O)C3)cc2)cnn1C [Example 63] |
| 0.023 | CCCCN(C)C(=O)OCc1c(-c2ccc(O[C@H]3CCC[C@H](C(=O)O)C3)cc2)cnn1C [Example 64] |
| 0.048 | Cc1nc(-c2cnn(C)c2COC(=O)N(C)[C@H](C)C2CC2)ccc1O[C@H]1CCC[C@H](C(=O)O)C1 [Example 65] |
| 0.059 | CCCCN(C)C(=O)OCc1c(-c2ncc(O[C@H]3CCC[C@H](C(=O)O)C3)c(C)n2)cnn1C [Example 67] |
| 0.06 | Cc1nc(-c2cnn(C)c2COC(=O)N(C)Cc2ccccc2)ncc1O[C@H]1CCC[C@H](C(=O)O)C1 [Example 72] |
| 0.077 | Cc1nc(-c2cnn(C)c2COC(=O)N(C)CCCCF)ncc1O[C@H]1CCC[C@H](C(=O)O)C1 [Example 74] |
| 0.071 | Cc1nc(-c2cnn(C)c2COC(=O)N(C)CC2CCC2)ncc1O[C@H]1CCC[C@H](C(=O)O)C1 [Example 80] |
| 0.06 | CCc1nc(-c2cnn(C)c2COC(=O)N(C)C2CCCC2)ncc1O[C@H]1CCC[C@H](C(=O)O)C1 [Example 83] |
| 0.013 | CCc1nc(-c2cnn(C)c2COC(=O)N(C)CC2CCC2)ncc1O[C@H]1CCC[C@H](C(=O)O)C1 [Example 84] |
| 0.033 | CCCCN(C)C(=O)OCc1c(-c2ncc(O[C@H]3CCC[C@H](C(=O)O)C3)c(CC)n2)cnn1C [Example 87] |
| 0.023 | CC(C1CC1)N(C)C(=O)OCc1c(-c2ccc(O[C@H]3CCC[C@H](C(=O)O)C3)cc2)cnn1C (stereo partly drawn) [Example 89] |
| 0.032 | Cc1nc(-c2cnn(C)c2COC(=O)N(C)C[C@@H]2C[C@H]2C)ncc1O[C@H]1CCC[C@H](C(=O)O)C1 [Example 91] |
| 0.045 | Cc1nc(-c2cnn(C)c2COC(=O)N(C)C[C@H]2C[C@@H]2C)ncc1O[C@H]1CCC[C@H](C(=O)O)C1 [Example 92] |

Tested on: pancreatic cancer cell lines
Assay: not given
Settings: LPA-induced and ascites-induced; highly peritoneal metastatic pancreatic cancer cell line; cited from earlier work

| SMILES | invasion activity |
| --- | --- |
| Cc1noc(-c2ccc(CSCCC(=O)O)cc2)c1NC(=O)OC(C)c1ccccc1Cl (stereo not drawn) [Ki16425] | blocked |

Same assay, conditions: in response to LPA and peritoneal fluid (ascites) from pancreatic cancer patients; cited from earlier work

| SMILES | in vitro migration |
| --- | --- |
| Cc1noc(-c2ccc(CSCCC(=O)O)cc2)c1NC(=O)OC(C)c1ccccc1Cl (stereo not drawn) [Ki16425] | effectively blocked |
